This note sets out measurements from ChEMBL document CHEMBL1201862, “PubChem BioAssay data set” (2004).

The target of assay [1] is T1, Fatty acid synthase (Homo sapiens, UniProt P49327). Put plainly: inhibition of human FAS-TE enzyme activity – biochemical, kinetic fluorescence intensity, dose response (AID 624326).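 Also: rate of fluorescence rise from hydrolysis of a fluorogenic O-methyl fluorescein ester substrate.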 The class given is functional.
A further assay has as its target T2, Aminopeptidase N (Plasmodium falciparum FcB1/Columbia, UniProt O96935).
T2 sequence (O96935 whole entry): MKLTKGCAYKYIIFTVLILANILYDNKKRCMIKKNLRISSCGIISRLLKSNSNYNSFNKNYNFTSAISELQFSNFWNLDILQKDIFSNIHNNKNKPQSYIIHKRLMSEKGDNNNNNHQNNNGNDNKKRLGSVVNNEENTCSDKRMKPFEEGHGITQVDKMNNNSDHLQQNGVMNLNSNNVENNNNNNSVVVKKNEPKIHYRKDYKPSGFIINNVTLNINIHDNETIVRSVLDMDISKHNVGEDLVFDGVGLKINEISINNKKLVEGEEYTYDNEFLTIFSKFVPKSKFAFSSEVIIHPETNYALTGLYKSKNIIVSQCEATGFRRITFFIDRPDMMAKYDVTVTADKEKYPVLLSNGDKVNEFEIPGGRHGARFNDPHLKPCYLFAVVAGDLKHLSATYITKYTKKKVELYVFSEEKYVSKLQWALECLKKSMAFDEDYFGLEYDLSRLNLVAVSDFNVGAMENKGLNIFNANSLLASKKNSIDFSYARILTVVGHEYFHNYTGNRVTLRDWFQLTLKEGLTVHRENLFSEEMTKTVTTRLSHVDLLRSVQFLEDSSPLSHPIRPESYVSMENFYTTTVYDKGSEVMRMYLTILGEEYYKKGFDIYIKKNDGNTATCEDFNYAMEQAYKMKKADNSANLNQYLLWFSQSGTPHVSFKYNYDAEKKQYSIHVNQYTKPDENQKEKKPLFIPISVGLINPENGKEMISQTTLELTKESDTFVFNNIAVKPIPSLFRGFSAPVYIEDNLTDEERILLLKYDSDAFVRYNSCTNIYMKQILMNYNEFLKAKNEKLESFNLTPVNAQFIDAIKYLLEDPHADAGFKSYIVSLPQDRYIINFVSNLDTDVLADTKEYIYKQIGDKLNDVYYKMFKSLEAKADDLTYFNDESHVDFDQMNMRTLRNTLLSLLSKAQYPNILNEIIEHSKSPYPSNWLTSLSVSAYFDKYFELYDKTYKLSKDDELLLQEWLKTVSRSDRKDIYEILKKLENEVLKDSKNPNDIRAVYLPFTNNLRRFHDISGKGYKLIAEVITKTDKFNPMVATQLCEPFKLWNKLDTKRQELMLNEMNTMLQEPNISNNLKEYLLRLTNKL
Put plainly: malaria alanyl aminopeptidase activity blockers – biochemical, fluorogenic H-Leu-NHMec substrate, 1536-well (AID 1445). More on the design: species or system Plasmodium falciparum 3D7, 3D7.

Assay [2] has as its target Induced myeloid leukemia cell differentiation protein Mcl-1 (Homo sapiens, UniProt Q07820). In kind it is functional.
Assay [3] deals with T1, Fatty acid synthase. The assay can be described thus: inhibition of human FAS-TE enzyme activity – biochemical, endpoint fluorescence intensity, uHTS hits, dose response (AID 624327).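 Also: fluorescence from hydrolysis of an O-methyl fluorescein acyl ester substrate by the enzyme.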 In kind it is functional.
Assay [4] deals with Eukaryotic translation initiation factor 4E (Mus musculus, UniProt P63073). The assay can be described thus: blockers of eIF4G binding by eIF4E – biochemical, TR-FRET, dose response (AID 855).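 Also: potency for disrupting eIF4E binding to eIF4GI seen as loss of FRET.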 The class given is functional.
Eukaryotic translation initiation factor 4E, sequence (P63073 whole entry): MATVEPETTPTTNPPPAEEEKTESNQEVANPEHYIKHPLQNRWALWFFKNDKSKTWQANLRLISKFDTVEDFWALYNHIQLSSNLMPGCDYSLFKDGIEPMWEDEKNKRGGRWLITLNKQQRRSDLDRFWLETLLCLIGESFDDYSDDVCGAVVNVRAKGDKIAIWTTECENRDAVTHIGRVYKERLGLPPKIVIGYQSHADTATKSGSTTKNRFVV
A short description of assay [5]: viability of uninfected HEp-2 cells – cell-based, HTS, cytotoxicity control for RSV inhibitor project, dose response (AID 2410). In kind it is functional. The settings on record: human respiratory syncytial virus.
For another assay, the target named is Nonstructural protein 1 (Influenza A virus, UniProt Q194T2). In kind it is functional, Influenza A virus (A/California/07/2009(H1N1)).
Nonstructural protein 1, sequence (Q194T2 whole entry): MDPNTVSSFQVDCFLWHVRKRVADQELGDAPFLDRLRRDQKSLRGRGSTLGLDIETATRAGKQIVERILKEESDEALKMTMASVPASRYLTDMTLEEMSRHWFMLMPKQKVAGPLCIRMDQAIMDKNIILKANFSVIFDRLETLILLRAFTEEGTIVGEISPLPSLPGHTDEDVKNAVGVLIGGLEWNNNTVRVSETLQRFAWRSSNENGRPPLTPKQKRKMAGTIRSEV
The target of assay [6] is T3, Replicative DNA helicase DnaB (Mycobacterium tuberculosis, UniProt P9WMR3).
T3 sequence (P9WMR3 whole entry): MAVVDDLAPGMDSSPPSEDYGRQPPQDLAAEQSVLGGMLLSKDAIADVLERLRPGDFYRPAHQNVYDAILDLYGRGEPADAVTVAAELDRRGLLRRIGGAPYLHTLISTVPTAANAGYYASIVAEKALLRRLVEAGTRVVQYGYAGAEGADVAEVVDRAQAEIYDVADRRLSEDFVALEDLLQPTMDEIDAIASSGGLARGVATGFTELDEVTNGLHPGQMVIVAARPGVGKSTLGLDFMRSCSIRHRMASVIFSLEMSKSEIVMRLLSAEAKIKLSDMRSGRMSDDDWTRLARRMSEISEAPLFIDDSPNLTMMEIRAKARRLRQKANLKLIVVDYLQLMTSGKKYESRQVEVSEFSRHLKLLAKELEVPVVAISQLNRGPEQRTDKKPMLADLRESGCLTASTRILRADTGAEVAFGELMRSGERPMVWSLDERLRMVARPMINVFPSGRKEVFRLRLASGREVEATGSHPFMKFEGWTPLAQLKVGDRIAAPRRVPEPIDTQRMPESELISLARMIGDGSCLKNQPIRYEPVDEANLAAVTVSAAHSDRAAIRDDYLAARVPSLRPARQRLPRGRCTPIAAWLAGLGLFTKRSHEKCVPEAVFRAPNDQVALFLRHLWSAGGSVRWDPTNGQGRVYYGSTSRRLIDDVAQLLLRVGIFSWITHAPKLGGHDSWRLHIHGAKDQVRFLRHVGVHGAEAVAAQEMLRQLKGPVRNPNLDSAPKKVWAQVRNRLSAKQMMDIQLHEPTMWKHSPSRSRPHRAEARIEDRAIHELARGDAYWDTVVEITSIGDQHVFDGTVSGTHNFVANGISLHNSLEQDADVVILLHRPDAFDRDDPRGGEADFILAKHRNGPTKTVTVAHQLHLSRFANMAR
The assay can be described thus: DnaB intein splicing inhibitors, dose response, biochemical, cell-free fluorescence (AID 449749). The class given is functional.

In the next assay the target is T4, Protein RecA (Mycobacterium tuberculosis, UniProt P9WHJ3).
T4 sequence (P9WHJ3 whole entry): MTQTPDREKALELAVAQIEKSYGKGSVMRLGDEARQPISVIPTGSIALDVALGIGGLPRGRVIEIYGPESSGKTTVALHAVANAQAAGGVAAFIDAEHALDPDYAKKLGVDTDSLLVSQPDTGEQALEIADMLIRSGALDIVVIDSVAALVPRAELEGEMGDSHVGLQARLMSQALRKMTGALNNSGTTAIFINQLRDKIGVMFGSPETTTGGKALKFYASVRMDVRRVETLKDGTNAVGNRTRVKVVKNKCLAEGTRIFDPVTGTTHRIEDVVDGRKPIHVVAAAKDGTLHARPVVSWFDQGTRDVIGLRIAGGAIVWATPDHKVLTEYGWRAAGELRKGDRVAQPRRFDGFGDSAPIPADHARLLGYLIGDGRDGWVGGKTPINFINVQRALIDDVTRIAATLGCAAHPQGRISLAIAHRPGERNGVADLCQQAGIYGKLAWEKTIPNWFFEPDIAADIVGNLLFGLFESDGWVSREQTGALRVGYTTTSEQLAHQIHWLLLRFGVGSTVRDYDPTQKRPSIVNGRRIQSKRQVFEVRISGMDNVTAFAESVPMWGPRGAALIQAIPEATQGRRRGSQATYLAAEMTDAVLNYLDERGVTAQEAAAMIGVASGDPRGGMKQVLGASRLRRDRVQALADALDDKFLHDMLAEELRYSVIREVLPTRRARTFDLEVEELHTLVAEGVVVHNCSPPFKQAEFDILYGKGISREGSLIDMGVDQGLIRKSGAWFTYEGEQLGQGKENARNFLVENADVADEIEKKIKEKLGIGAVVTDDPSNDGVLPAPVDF
Put plainly: Fluorescence Cell-Free Homogeneous Dose Retest to Identify Inhibitors of RecA-Intein Splicing Activity. [Related pubchem assays (depositor defined):AID2097, AID2223, AID489010, AID492950]. In kind it is functional.

The next assay addresses Genome polyprotein (dengue virus type 2, UniProt P29990). The assay can be described thus: flavivirus cap methylation enzyme inhibition – biochemical, confirmation dose response, primary screen (AID 588689). The class given is functional.
The target in a further assay is T5, Leucine aminopeptidase (Plasmodium falciparum 3D7, UniProt Q8IL11).
T5 sequence (Q8IL11 whole entry): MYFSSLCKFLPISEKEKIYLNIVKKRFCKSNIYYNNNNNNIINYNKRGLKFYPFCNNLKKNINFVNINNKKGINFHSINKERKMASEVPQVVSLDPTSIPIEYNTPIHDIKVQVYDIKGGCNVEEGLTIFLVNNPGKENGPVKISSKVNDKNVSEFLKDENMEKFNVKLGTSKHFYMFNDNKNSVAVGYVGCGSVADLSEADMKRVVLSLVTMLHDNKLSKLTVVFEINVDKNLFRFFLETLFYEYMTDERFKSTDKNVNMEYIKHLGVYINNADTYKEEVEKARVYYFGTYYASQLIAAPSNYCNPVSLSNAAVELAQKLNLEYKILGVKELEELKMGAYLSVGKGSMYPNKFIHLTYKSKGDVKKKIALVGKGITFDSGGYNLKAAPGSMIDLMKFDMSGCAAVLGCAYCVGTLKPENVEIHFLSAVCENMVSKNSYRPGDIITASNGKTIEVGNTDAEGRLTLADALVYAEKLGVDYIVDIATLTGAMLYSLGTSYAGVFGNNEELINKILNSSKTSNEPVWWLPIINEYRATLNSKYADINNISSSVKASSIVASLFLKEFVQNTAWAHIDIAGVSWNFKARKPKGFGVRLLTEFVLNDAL
The assay can be described thus: P. falciparum M17LAP inhibitors, primary screen, biochemical, fluorogenic H-Leu-NHMec substrate, 1536-well (AID 1619). The class given is functional.

Another assay deals with T6, Streptokinase A (Streptococcus pyogenes serotype M1, UniProt P10520).
T6 sequence (P10520 whole entry): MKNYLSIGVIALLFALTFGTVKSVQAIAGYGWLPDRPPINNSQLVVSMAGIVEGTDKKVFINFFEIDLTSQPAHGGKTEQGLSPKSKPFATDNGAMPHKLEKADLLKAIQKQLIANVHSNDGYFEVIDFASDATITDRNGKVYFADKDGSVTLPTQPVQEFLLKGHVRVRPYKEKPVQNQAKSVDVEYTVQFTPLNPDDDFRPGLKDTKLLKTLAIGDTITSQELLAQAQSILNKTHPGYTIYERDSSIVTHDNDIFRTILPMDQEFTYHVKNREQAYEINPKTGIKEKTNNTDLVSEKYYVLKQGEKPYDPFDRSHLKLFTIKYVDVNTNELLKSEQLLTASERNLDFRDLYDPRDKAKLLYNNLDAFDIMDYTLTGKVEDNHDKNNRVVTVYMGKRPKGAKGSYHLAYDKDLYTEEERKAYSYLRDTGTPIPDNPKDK
Put plainly: viability-normalized secreted streptokinase activity reduction – plasminogen activation absorbance, OD405, dose response (AID 1914).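 Also: secreted streptokinase activity via plasminogen activation per viability signal from cell pellet.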 In kind it is functional, Streptococcus pyogenes M1 GAS.

The subject of assay [7] is Streptococcus sp. 'group A'. The assay can be described thus: Streptococcus pyogenes SK(-)GAS viability under kanamycin – luminescence, BacTiterGlo, confirmation, counter-screen for streptokinase expression inhibitor project, dose response (AID 1900). The class given is functional, organism-based.
Another assay deals with Streptococcus. Put plainly: GAS UMAA2166 growth inhibition – luminescence, BacTiterGlo, counter-screen for streptokinase expression inhibitor project, dose response (AID 1915).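 Also: potency for reduction of bacterial viability or growth.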 In kind it is functional, organism-based.
The nature of assay [8]: microbe, parasite or virus in culture. In kind it is functional. The settings on record: Mycobacterium tuberculosis.

Activity calls are given as the source filed them. Some results are limits rather than exact numbers.

T1 sequence (P49327 whole entry): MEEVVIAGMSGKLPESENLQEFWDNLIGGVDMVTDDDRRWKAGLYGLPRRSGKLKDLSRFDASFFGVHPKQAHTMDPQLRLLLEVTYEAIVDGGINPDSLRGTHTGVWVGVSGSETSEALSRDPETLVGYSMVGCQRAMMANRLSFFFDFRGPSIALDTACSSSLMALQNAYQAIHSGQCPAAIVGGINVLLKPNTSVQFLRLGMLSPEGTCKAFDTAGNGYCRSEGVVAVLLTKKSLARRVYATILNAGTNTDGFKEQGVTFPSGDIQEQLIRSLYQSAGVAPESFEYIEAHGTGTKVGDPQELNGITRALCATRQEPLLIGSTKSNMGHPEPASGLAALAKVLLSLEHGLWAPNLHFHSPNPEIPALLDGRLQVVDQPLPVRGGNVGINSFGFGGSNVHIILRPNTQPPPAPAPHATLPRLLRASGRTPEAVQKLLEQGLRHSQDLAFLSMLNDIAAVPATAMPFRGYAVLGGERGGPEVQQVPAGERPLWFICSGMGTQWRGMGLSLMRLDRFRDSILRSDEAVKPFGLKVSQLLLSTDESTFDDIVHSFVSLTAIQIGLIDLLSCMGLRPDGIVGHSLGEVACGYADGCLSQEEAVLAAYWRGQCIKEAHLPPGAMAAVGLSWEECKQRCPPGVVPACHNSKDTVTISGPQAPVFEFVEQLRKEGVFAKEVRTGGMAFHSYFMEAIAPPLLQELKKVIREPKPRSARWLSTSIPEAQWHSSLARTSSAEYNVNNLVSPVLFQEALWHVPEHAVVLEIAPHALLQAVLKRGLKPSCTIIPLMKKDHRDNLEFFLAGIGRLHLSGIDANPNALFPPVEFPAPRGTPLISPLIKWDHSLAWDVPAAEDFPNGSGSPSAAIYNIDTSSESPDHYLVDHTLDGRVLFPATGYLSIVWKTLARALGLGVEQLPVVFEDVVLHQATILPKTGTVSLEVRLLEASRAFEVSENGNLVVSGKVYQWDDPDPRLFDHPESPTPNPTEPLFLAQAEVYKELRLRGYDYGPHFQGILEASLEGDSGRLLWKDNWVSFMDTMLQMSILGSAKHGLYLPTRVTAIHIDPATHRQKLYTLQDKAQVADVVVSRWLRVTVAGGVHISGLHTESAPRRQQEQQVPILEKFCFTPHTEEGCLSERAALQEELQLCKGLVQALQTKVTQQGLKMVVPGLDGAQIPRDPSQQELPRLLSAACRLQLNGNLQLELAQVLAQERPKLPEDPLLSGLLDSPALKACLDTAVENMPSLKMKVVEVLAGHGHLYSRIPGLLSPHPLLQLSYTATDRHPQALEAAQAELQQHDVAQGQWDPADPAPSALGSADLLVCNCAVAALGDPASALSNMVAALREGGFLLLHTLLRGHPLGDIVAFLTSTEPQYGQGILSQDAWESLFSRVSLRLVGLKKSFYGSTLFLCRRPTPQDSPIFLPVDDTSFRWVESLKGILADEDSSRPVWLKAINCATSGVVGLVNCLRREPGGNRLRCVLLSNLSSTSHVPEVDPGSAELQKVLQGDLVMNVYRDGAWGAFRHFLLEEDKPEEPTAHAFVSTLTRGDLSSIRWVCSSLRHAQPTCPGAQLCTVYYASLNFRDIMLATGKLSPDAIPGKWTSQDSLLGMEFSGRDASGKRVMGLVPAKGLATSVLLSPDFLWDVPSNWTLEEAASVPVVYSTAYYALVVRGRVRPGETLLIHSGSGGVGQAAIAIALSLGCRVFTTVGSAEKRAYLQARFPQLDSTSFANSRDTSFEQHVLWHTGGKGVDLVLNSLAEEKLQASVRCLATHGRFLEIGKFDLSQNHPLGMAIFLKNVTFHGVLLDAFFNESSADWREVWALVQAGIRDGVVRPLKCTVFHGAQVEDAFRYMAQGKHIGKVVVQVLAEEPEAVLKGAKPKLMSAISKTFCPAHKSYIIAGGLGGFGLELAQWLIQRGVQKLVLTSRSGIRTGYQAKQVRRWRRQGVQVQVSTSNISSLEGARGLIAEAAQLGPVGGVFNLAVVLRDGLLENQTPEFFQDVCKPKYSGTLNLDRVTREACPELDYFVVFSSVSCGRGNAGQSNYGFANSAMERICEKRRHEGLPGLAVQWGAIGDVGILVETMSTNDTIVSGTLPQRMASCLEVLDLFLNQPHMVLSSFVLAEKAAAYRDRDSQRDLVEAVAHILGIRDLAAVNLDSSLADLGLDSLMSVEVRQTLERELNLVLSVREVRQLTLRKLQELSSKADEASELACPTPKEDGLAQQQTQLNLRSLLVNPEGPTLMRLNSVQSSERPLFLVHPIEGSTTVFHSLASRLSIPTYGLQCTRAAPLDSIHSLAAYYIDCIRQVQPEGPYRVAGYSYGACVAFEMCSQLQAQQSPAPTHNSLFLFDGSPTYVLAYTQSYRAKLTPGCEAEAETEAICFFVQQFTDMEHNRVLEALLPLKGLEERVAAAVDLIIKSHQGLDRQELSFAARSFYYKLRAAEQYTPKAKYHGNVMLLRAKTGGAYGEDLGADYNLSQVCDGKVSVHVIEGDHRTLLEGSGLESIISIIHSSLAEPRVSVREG
Genome polyprotein, sequence (P29990 2492-3391 limits assumed): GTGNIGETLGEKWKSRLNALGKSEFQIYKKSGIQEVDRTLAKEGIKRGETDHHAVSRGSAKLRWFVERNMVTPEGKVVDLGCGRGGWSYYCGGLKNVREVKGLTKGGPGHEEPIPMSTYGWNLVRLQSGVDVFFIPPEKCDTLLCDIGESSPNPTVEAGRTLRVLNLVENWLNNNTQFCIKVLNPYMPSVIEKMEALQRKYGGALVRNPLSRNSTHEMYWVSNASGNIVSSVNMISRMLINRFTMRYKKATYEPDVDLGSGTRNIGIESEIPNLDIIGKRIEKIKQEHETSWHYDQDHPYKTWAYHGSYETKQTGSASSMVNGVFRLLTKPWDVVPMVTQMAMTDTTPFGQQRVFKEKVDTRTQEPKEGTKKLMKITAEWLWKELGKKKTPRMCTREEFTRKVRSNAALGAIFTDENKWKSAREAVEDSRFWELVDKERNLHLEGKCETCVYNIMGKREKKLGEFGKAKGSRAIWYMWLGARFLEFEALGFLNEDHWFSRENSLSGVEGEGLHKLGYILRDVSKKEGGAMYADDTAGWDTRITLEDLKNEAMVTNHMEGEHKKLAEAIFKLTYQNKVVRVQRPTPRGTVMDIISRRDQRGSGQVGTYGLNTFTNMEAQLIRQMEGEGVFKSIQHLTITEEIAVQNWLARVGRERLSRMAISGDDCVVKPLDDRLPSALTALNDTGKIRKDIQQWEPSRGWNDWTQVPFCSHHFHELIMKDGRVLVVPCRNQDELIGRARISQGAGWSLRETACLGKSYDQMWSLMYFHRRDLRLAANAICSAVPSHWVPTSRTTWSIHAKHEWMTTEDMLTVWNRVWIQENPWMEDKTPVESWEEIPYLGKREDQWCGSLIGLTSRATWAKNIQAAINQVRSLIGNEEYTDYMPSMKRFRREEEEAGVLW
Induced myeloid leukemia cell differentiation protein Mcl-1, sequence (Q07820 whole entry): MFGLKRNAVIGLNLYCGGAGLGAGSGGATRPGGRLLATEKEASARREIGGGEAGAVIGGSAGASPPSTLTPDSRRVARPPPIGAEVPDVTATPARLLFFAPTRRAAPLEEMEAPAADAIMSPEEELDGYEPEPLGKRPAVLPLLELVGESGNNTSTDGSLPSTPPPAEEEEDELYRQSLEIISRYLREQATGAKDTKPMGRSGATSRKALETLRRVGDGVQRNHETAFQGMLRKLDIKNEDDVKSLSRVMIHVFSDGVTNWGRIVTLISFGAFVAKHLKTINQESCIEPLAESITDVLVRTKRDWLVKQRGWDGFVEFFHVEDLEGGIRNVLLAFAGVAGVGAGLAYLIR

With `COc1cc(/C=N/NC(=O)C(Cc2c[nH]c3ccccc23)NC(=O)OCc2ccccc2)cc([N+](=O)[O-])c1O` (stereo not drawn), the IC50 at Fatty acid synthase [1] was 8.12 µM (active); at Aminopeptidase N it was 4.75 µM (active); in assay [2], 6.11 µM (active); at Fatty acid synthase [3], 5.95 µM (active).

Turning to `Cc1ccc(S(=O)(=O)N2CCN(C(C)C(=O)Nc3ccccc3-c3ccccc3)CC2)cc1` (stereo not drawn), the IC50 in assay [4] is > 64 µM (inactive).

On to `COc1ccccc1NC(=O)Nc1nn(C)c2cccc(OC)c12`, for which, in [5], the CC50 was 41.1 µM (active). Besides, the IC50 in “cells” is 41.2 µM (active).

Consider `Cc1ccc(S(=O)(=O)N(C)CCCC(=O)Nc2cc(C)ccc2C)cc1`, for which the IC50 at Nonstructural protein 1 is 22.9 µM (active).

As for `Cc1ccc(-c2ccc(/C=N/NC3=NC(=O)C(CC(=O)O)S3)o2)c([N+](=O)[O-])c1` (stereo not drawn), the concentration at half-maximal activity (AC50) in [6] is 26.5 µM (active). Moreover, the concentration giving a half-maximal response (EC50) at Protein RecA was 10.5 µM (active). In addition, the concentration for half-maximal inhibition (IC50) was 88.6 µM (active) on Genome polyprotein and 101 µM (active) on Leucine aminopeptidase.

As for `COc1ccc(OCC(=O)N2CC3(C)CC2CC(C)(C)C3)cc1` (stereo not drawn), the IC50 in [4] is > 64 µM (inactive).

Take `CC(=O)C1=C(C)NC(SCc2ccc(C#N)cc2)=C(C#N)C1c1ccco1` (stereo not drawn): the IC50 in [4] is > 64 µM (inactive).

Consider `Oc1c(C(c2cccs2)N2CCN(c3ccccc3)CC2)ccc2cccnc12` (stereo not drawn), for which the IC50 in assay [4] is > 64 µM (inactive).

Turning to `CC1(C)Oc2ccc3ccc(=O)oc3c2C(/C=N/NC(N)=S)=C1O`, the IC50 at Nonstructural protein 1 is 26.6 µM (active). Besides, the concentration for a half-maximal effect (EC50) at Streptokinase A is > 150 µM (not active); in assay [7], 3.2 µM (active); in the assay with Streptococcus it was 22.8 µM (active).

Regarding `CCCOc1ccc(N2C(=O)CC(N(Cc3ccc(OC)cc3)C(S)=Nc3ccccc3)C2=O)cc1` (stereo not drawn), in assay [5], the CC50 is > 50 µM (active). Moreover, in the assay “cells”, the half-maximal inhibitory concentration (IC50) was 7.34 µM (active).

Take `Cc1nn(-c2ccccc2)c2c1C(c1ccc([N+](=O)[O-])cc1)N1C(=N2)C(=O)Nc2ccccc21` (stereo not drawn): the CC50 in assay [5] is 34.8 µM (active); in assay [8], 39.3 µM (active). Besides, in the assay “cells”, the IC50 was 31.5 µM (active).

For `COc1ccc(C(C)=O)cc1CSc1nc2cc(C(=O)O)ccc2c(=O)n1Cc1ccccc1`, the concentration for half-maximal inhibition (IC50) at Aminopeptidase N was 83.5 µM (active).

Take `Cc1ccc(O)c(NC(=S)NC(=O)Cc2ccc(Cl)cc2)c1`: in [5], the CC50 was 29.4 µM (active). The IC50 in the assay “cells” was 23.4 µM (active).

With `C#CCCOC(=O)N1C2=NC(C(=O)OC)=C(C(=O)OC)[C@@H]3N(CC=C)c4ccccc4[C@]23C[C@H]1C(=O)OC`, at Aminopeptidase N, the IC50 was 58.5 µM (active).
